Test [1] deals with 46I/47V/50V (VX478) strain. In words: Transient DNA transfection assay, strain 46I/47V/50V (VX478). The class given is cell-based, HIV-1. As to conditions: 1 nM. From the text:
(§1) By way of PCR-supported mutagenesis and cloning, HIV-1 protease mutants are generated that are based on the infectious clone pNL4-3 (freely available via the "NIH AIDS reference and reagent program", the original reference is A. Adachi et al. J. Virol (1986) 59, 284-91--but it can, of course, be any other HIV clone, or even clinical material, provided that comparability is ensured). […] The cloned fragments are, for example, only 500 base pairs in length, all of the remainder being unchanged. By using mutations in always the same clone, direct comparability is ensured, which would rot be the case in a direct comparison of clinical samples or of different HIV clones.
(§2) That system is used as a transient DNA transfection system for tests:
(§3) Instead of the strains mentioned, there may be used any human T4-positive cells, such as the HeLa T4 cells, deposited under that name by Richard Axel and Paul Maddon in "NIH AIDS reference and reagent program" and obtainable via that source.

Test [2] deals with resistant variant (45I,76F strain).
Excerpt: as §1, §2, §3

As to `COC(=O)N[C@H](C(=O)N[C@@H](Cc1ccccc1)[C@@H](O)CN(Cc1ccc(-c2ccccn2)cc1)NC(=O)[C@@H](NC(=O)OC)C(C)(C)C)C(C)(C)C` [Example 46, 1-[4-(Pyridin-2-yl)-phenyl]-4(S)-hydroxy-5(S)-2,5-bis[N-(N-methoxycarbonyl-(L)-tert-leucyl)amino]-6-phenyl-2-azahexane], the “activity against strain 46I/47V/50V (VX478) compared with saquinavir, ritonavir and indinavir” value in test [1] is “more potent (not quantified) than that of saquinavir, ritonavir and indinavir”. In addition, in test [2], the “activity against a resistant variant (45I,76F strain) compared with saquinavir, indinavir, ritonavir” value was “comparable with saquinavir and better than that of indinavir (Merck & Co., Inc., see below) or ritonavir”.

The record behind these values is patent US6300519A, “Antivirally active heterocyclic azahexane derivatives” (Novartis Finance Corporation, priority 1996, dated 2001).
